Columns and labels:
ceramidase = experiment: Ceramidase activity assay in lysate of treated INS1 cells; type: cell-based, rat; details: INS1 cells treated 20 μM 24 h
Experimental: INS1 cells were cultured in 10 cm dish and treated with AdipoRon or AdipoRonPEG5 (20 μM) for 24 h. Remove the media and collect cells using a cell scraper and transfer cells to a 1.5 ml tube. Centrifuge to spin down the cells before freezing in liquid nitrogen. Cell pellets were stored at –80°C till analysis. During analysis, INS1 cell pellets on dry ice were mixed with 500 μl of Dulbecco PBS with Ca^2+ and Mg^2+. The sample was then immediately placed on ice and lysed with a tissue disruptor probe (Fisher Scientific, Model FB50, Waltham MA) by performing five short disruption cycles at a power of 30% (3 s each cycle). Briefly perform a gentle vortexing of the vial. Take an aliquot of 50 μl of sample for protein determination (Pierce™ BCA Protein Assay Kit, Thermo Fisher Scientific). In total, 400 μl of lysate was transferred to a culture borosilicate glass tube containing 1.6 ml of Dulbecco PBS with Ca^2+ and Mg^2+ on ice. […] All the samples and serial dilutions were analyzed by injecting 1 μl in the LC-MS/MS system: Shimadzu LCMS-8060 triple-quadrupole mass spectrometer coupled to a Nexera X2 UHPLC chromatograph (Shimadzu Scientific Instruments, Columbia, MD) operating the dual ion source (DUIS) in electrospray positive ionization mode. […]

STZ-treated Adn−/− mice = experiment: OGTT and triglyceride tolerance test in STZ-treated adiponectin knockout mice; type: in vivo, mouse
Experimental: For oral glucose tolerance test (OGTT), mice were fasted for 4–6 h and subjected to an oral gavage of dextrose (2 mg/g body weight). Tail blood was collected at 0, 15, 30, 60, and 120 min and prepared for serum and assayed for glucose and insulin. For insulin tolerance test (ITT), insulin (0.75 U/kg Humulin R; Eli Lilly, Indianapolis, IN) was administered under fed condition. Serum glucose level was measured at 0, 15, 30, 60, and 90 min time point. Triglyceride tolerance test (TGTT) was initiated by oral gavage of 20% Intralipid (10 μl/g BDW, l141-100 ml, Sigma), and serum was collected at 0, 1, 1.5, 3, and 6 h for triglyceride assay. Glucose, insulin, and triacylglyceride levels were measured using an oxidase-peroxidase assay (Sigma P7119), insulin ELISA (Crystal Chem, Elk Grove village, IL, #15596018), and Infinity Triglycerides Reagent (Thermo Fisher Scientific TR22421).
Streptozotocin (STZ; Sigma S1030) was dissolved by 0.05 M citrate buffer (final; 20 mg/ml). Following 6 h fasting, mice received a single intraperitoneal injection of streptozotocin (200 mg/kg) to induce insulinopenic conditions.

[1] = test system: liver transcriptome of HFD-fed mice; experiment: RNA-seq of liver of HFD-fed mice; type: in vivo, mouse
Experimental: RNA-sequence was performed by Novogene (Sacramento, CA) by utilizing isolated RNA. After the QC procedures, mRNA from eukaryotic organisms is enriched from total RNA using oligo(dT) beads. For prokaryotic samples, rRNA is removed using a specialized kit that leaves the mRNA. The mRNA from either eukaryotic or prokaryotic sources was then fragmented randomly in fragmentation buffer, followed by cDNA synthesis using random hexamers and reverse transcriptase. After first-strand synthesis, a custom second-strand synthesis buffer (Illumina) is added, with dNTPs, RNase H, and Escherichia coli polymerase I to generate the second strand by nick-translation, and AMPure XP beads are used to purify the cDNA. The final cDNA library is ready after a round of purification, terminal repair, A-tailing, ligation of sequencing adapters, size selection, and PCR enrichment. Library concentration was first quantified using a Qubit 2.0 fluorometer (Life Technologies) and then diluted to […] before checking insert size on an Agilent 2100 and quantifying to greater accuracy by quantitative PCR (Q-PCR) (library activity >2 nM). Libraries are fed into Novaseq6000 machines according to activity and expected data volume.
Differential expression of genes between AdipoRon-treated group and AdipoRonPEG5-treated group was analyzed by use of genes having an fpkm of ≥0 in all samples. Genes whose expression was “between 1.1 and 0.9 fold change” or “more than 1.1 fold up- “or “less than 0.9 fold down-“ regulated in liver RNA from control (n = 3) versus AdipoRon (n = 3) versus AdipoRonPEG5 group constituted “nc”, “up,” and “down” signatures. Gene expression was analyzed using Gene Ontology analysis (GO Consortium) and GenePattern software (Broad Institute).

INS-1 cells = experiment: qPCR gene expression in INS-1 cells; type: cell-based, rat; details: for genes related to insulin secretion and β-cell differentiation transcription factors: absence of palmitate
wild-type mice = experiment: Cold exposure (4°C): body temperature, scWAT histology, qPCR; type: in vivo, mouse
Experimental: In total, 5 mg/Kg of PBS and AdipoRonPEG5 were injected twice a day for 5 days at room temperature followed by housing in the cold chamber (4°C) for 7 days. Body temperature was measured at 0, 1, 2, 3, 4, and 5 h time point at the first day of cold exposure. In total, 5 mg/Kg of PBS and AdipoRonPEG5 were injected once a day for 7 days after cold exposure followed by harvesting tissues for qPCR analysis.

SMILES | ceramidase activity / labeled ceramide levels in cell lysate (ceramidase) | blood TG levels in triglyceride tolerance test (STZ-treated Adn−/− mice) | glucose levels in OGTT (STZ-treated Adn−/− mice) | AdipoR1 / AdipoR2 signaling pathway genes ([1]; HFD 4 weeks, 5 mg/kg 5 days) | gluconeogenesis-related genes in the liver ([1]; HFD 4 weeks, 5 mg/kg 5 days) | triglyceride- and glucose-metabolism-related genes incl. scd1, pck1 ([1]; HFD 4 weeks, 5 mg/kg 5 days) | upregulation of genes of the family of ceramidases ([1]; HFD 4 weeks, 5 mg/kg 5 days) | glutathione S-transferases Gstm1 and Gstm2 ([1]; top 30 genes) | genes related to insulin secretion and β-cell differentiation transcription factors (INS-1 cells; 20 μM) | expression of Ins1, Nkx6-1 and Kcnj11 (INS-1 cells; 20 μM, presence of palmitate) | expression of Hif-1α (INS-1 cells; PA-stressed INS-1 cells) | subcutaneous adipose tissue histology after cold exposure (wild-type mice; 5 mg/kg, 4°C) | body temperature after acute cold exposure (wild-type mice; 5 mg/kg, 5 days treatment, 4°C) | T-cadherin (CDH13) expression (wild-type mice; scWAT and BAT after cold exposure, qPCR) | lipogenesis genes Acly and Scd1 ([1]; top 30 genes)
O=C(COc1ccc(C(=O)c2ccccc2)cc1)NC1CCN(Cc2ccc(OCCOCCOCCOCCOCCO)cc2)CC1 [AdipoRonPEG5] | reduced levels of labeled ceramides | not altered | improved the glucose levels | preference toward amplifying AdipoR1 signaling pathway | inhibitory effect | downregulated | highest | prominent increases | suppress | significantly increased | elevates | resembling beige adipocytes | significantly higher body temperature | upregulated expression | –
O=C(COc1ccc(C(=O)c2ccccc2)cc1)NC1CCN(Cc2ccccc2)CC1 [AdipoRon] | remained essentially the same as untreated control | – | – | sided with AdipoR2 signaling | – | – | to a lesser extent | – | suppress | – | – | – | – | – | highly upregulated

Source: PMC8327158, “PEGylated AdipoRon derivatives improve glucose and lipid metabolism under insulinopenic and high-fat diet conditions” (Journal of Lipid Research, 2021)
